Tests used:
[1] = target: human α2β3γ2 receptor (α2-GABAA receptor) (Homo sapiens (Human), UniProt P18507+P47869); experiment: Radioligand (3H-flunitrazepam) competition binding assay, BZD site; α2 vs α5 binding selectivity; details: ratio of Ki at α2β3γ2 to Ki at α5β3γ2
Description: α, β and γ subunits are essential for the formation of a complete functional GABAA receptor. In this example, HEK293 cell strains stably expressing human α5-GABAA receptor (comprising α5β3γ2 subunit) and α2-GABAA receptor (comprising α2β3γ2 subunit) were constructed and screened, respectively, by liposome transfection method (Felgner, P. L., et al., Proceedings of the National Academy of Sciences, 1987, 84:7413-7417). The specific subunit protein sequences are as follows: α5 subunit (protein sequence can be found in GenBank accession number: NM_000810.3); α2 subunit (protein sequence can be found in GenBank accession number: NM_000807.4); β3 subunit (protein sequence can be found in GenBank accession number: NM_000814.5); γ2 subunit (protein sequence can be found in GenBank accession number: NM_000816.3).
The above cell lines were subcultured. Amplification of α5β3γ2-HEK293 and α2β3γ2-HEK293 cells was used to test the affinity of the compounds to benzodiazepine site (BZD) of the GABAA receptor. During the passage of α5β3γ2-HEK293 cells, some of the suspended cells were spread on a glass slide pretreated with Poly-D-Lysine for electrophysiological testing.
Flunitrazepam is a non-specific reagent that binds to the BZD site efficiently. The affinity of the compounds to the BZD sites of the human α5β3γ2 and α2β3γ2 receptors can be determined by competing the compound with ^3H-flunitrazepam (isotope ^3H-labeled flunitrazepam) for binding to these two receptors.
Membrane preparation: HEK293 cells stably expressing human α5β3γ2 receptor or α2β3γ2 receptor were collected, suspended in 50 mM Tris-HCl buffer (pH=7.4), homogenized on ice by a homogenizer for 20 seconds 10 times, and centrifuged at 4° C., 1000 g for 10 min. The supernatant was collected, and the above steps were repeated. The supernatant was centrifuged (33800 g; centrifuge purchased from Thermo, rotor model: A27-8×50) at 4° C. for 60 min, and the precipitate was resuspended in Tris buffer (50 mM Tris-HCl, 10 mM MgCl2, 0.5 mM EDTA, 10% glycerol). The precipitate was the cell membrane. Protein content was determined by BCA (Bicinchoninic Acid) method (BCA kit from Pierce (Annoron)). The cell membrane was prepared into 1 ml aliquot and stored at −80° C.
Radioligand competition binding assay: the assay was carried out in a 200 μL system (96-well plate from Agilent) with 100 μL of cell membrane. The concentration of ^3H-flunitazepam (from PerkinElmer, lot: NET567250 UC) was 1 nM and the concentration of test compound was in the range 1×10^−5-10^−6 M. Flumazenil (from Tocris; lot: 1318) was used as a control. 1 μL of 2 mM flumazenil (final concentration 10 μM) was added to the Low signal control well (Low control, LC) and 1 μL of DMSO (from Sigma aldrich, lot: 472301) was added to the High signal control well (High control, HC). The final target membrane protein concentration was 5 μg/well. All test compound sample stocks were 10 mM DMSO solutions. The working concentration of the samples is to dilute all samples with DMSO to 0.2 mM, and then perform 4-fold continuous gradient dilution for a total of 8 concentration gradients. The 96-well plate was sealed with a plate sealing membrane and then incubated on a shaker at room temperature for 1 hour. Meanwhile, GF/C filter plate was soaked with a plate soaking buffer (0.3% PEI, polyethyleneimine, purchased from Sigma aldrich, model: P314, stored at 4° C.) for at least 0.5 hours. After completion of binding incubation, the cells were collected with a cell collector onto the GF/C filter plate and washed four times with a plate washing buffer (50 mM Tris-HCl, pH 7.4, stored at 4° C.). […]

[2] = Stability in simulated gastric fluid (SGF); type: physicochemical; details: 37° C., 1000 rpm
Procedure, shortened: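 Compound diluted into SGF from 10 mmol/L DMSO stock, shaken at 1000 rpm, 37 °C, sampled at 0 and 4 h, quenched with acetonitrile. Reversed-phase C18 HPLC with UV 254 nm; percent change in main peak area at 4 h versus 0 h, duplicate average.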

[3] = target: human α5β3γ2 receptor (α5-GABAA receptor) (Homo sapiens (Human), UniProt P18507+P31644); experiment: Radioligand (3H-flunitrazepam) competition binding assay, BZD site; details: 3H-flunitrazepam 1 nM; HEK293 membranes expressing human α5β3γ2
Procedure, shortened: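 Membranes from HEK293 cells stably expressing human α2β3γ2 or α5β3γ2 (5 μg protein/well) incubated 1 h at room temperature with 1 nM ^3H-flunitrazepam and 8-point 4-fold compound dilutions; nonspecific binding defined with 10 μM flumazenil. Filter-bound radioactivity counted; Ki derived from fitted IC50.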

Selectivity α2 ki/α5 ki [1]	Residual content in simulated gastric juice after 4 hours (compared with 0 hour content) [2]	Ki [3]	Compound
75.8 folds	35% (4 hours)	0.99 nM	Cc1onc(-c2ccc(F)cc2)c1COc1ccc(-c2cc3n(c(=O)n2)CCN3C)cn1 [Compound 41, 7-(6-((3-(4-fluorophenyl)-5-methylisoxazol-4-yl)methoxy)pyridin-3-yl)-1-methyl-2,3-dihydroimidazo[1,2-c]pyrimidin-5(1H)-one]
93.8 folds	94% (4 hours)	1.62 nM	Cc1onc(-c2ccc(F)cc2)c1COc1cnc(-c2nnc3n2CCOC3)cn1 [Compound 19, 3-(5-((3-(4-fluorophenyl)-5-methylisoxazol-4-yl)methoxy)pyrazin-2-yl)-5,6-dihydro-8H-[1,2,4]triazolo[3,4-c][1,4]oxazine]
39.2 folds		6.75 nM	Cc1onc(-c2ccc(F)cc2)c1COc1cnc(-c2nnc3n2CCCOC3)cn1 [Compound 24, 3-(5-((3-(4-fluorophenyl)-5-methylisoxazol-4-yl)methoxy)pyrazin-2-yl)-6,7-dihydro-5H,9H-[1,2,4]triazolo[3,4-c][1,4]oxazepane]
122.2 folds	75% (4 hours)	2.24 nM	Cc1onc(-c2ccc(F)cc2)c1COc1ccc(-c2cc3n(c(=O)n2)C[C@]24CO[C@H](CN32)C4)cn1 [Compound 38]
23.1 folds	65% (4 hours)	2.59 nM	Cc1onc(-c2ccc(F)cc2)c1COc1ccc(-c2nnc3n2CCOC3)cn1 [Compound 17, 3-(6-((3-(4-fluorophenyl)-5-methylisoxazol-4-yl)methoxy)pyridin-3-yl)-5,6-dihydro-8H-[1,2,4]triazolo[3,4-c][1,4]oxazine]
90.2 folds	80% (4 hours)	3.06 nM	Cc1onc(-c2ccc(F)cc2)c1COc1cnc(-c2nnc3n2CCC3)cn1 [Compound 23, 4-(((5-(6,7-dihydro-5H-pyrrolo[2,1-c][1,2,4]triazol-3-yl)pyrazin-2-yl)oxy)methyl)-3-(4-fluorophenyl)-5-methylisoxazole]
48.6 folds		5.37 nM	Cc1onc(-c2ccc(F)cc2)c1COc1ccc(N2CCn3ccnc3C2=O)nn1 [Compound 37, 7-(6-((3-(4-fluorophenyl)-5-methylisoxazol-4-yl)methoxy)pyridazin-3-yl)-6,7-dihydroimidazo[1,2-a]pyrazin-8(5H)-one]
63.3 folds		3.2 nM	Cc1onc(-c2ccc(F)cc2)c1COc1ccc(N2CCN3CCNC(=O)C3C2)nn1 (centres unmarked) [Compound 10, 8-(6-((3-(4-fluorophenyl)-5-methylisoxazol-4-yl)methoxy)pyridazin-3-yl) hexahydro-2H-pyrazino[1,2-a]pyrazin-1 (6H)-one]
86.7 folds	91% (4 hours)	9.74 nM	Cc1onc(-c2ccc(F)cc2)c1COc1cnc(-c2nnc3n2CCOCC3)cn1 [Compound 33, 3-(5-((3-(4-fluorophenyl)-5-methylisoxazol-4-yl)methoxy)pyrazin-2-yl)-5,6,8,9-tetrahydro-[1,2,4]triazolo[4,3-d][1,4]oxazepane]
41.4 folds	51% (4 hours)	0.32 nM	Cc1onc(-c2ccc(F)cc2)c1COc1ccc(-c2nnc3n2CCOC3)nn1 [Compound 18, 3-(6-((3-(4-fluorophenyl)-5-methylisoxazol-4-yl)methoxy)pyridazin-3-yl)-5,6-dihydro-8H-[1,2,4]triazolo[3,4-c][1,4]oxazine]
11.01 folds		2.14 nM	Cc1onc(-c2ccc(F)cc2)c1COc1ccc(-c2nnc3n2CCS(=O)(=O)C3)cn1 [Compound 7, 3-(6-((3-(4-fluorophenyl)-5-methylisoxazol-4-yl)methoxy)pyridin-3-yl)-5,6-dihydro-8H-[1,2,4]triazolo[3,4-c][1,4]thiazine 7,7-dioxide]
